pIC50: −log10 of the molar value. Counter-ions that a name gives are not always drawn. Like-named read-outs stand apart in the source and are kept apart here.
Key:
Jarid1A = Jarid1A (Homo sapiens (Human), UniProt P29375); test: Jarid1A in vitro enzyme inhibition assay (TR-FRET); assay type: biochemical
JMJD2C = JMJD2C (Homo sapiens (Human), UniProt Q9H3R0); test: JMJD2C in vitro enzyme inhibition assay (TR-FRET); assay type: biochemical
Jarid1B = Jarid1B (Homo sapiens (Human), UniProt Q9UGL1); test: Jarid1B in vitro enzyme inhibition assay (TR-FRET); assay type: biochemical
KDM5A/B = test: In vitro cell-based assay: tri-methyl H3K4 immuno-blotting in ZR-75-1 breast cancer cells
Protocol: This quantitative immuno-blotting assay measures the amount tri-methylated histone H3 at amino acid Lysine number 4, a specific substrate […] of the direct enzymatic activity of the histone demethylases KDM5A and KDM5B from extracts of the ZR-75-1 breast cancer cell line.
This assay is a fluorometric immunoassay for the quantification of tri-methyl H3K4 extracted from cells treated with test compound and is used as a measure of the cellular inhibition of KDM5A/B.
Extracts were prepared containing all of the cellular histone material using detergent based lysis and sonication methods. These lysates were subsequently normalized for total protein content using a colorimetric bicinchonic acid assay (MicroBCA Pierce/Thermo Scientific). Normalized cell extracts were then subjected to typical immuno-blotting procedures using NuPage reagents (Life Technologies). Electrophoretically separated histones were then transferred and immobilized using polyvinylidene difluoride membrane (Immobilon-FL Millipore). The amount of tri-methylated lysine 4 of histone H3 was detected using an antibody specific to the tri-methylated state (Cell Signaling Technologies) and quantified on an infrared imager using a densitometry software package (Odyssey CLx, Image Studio, Li-Cor). This background subtracted densitometry value was reported as a ration of the GAPDH amount for that sample and then calculated as a percent of the DMSO treated sample. The software package XL-fit (IDBS) was then used to calculate a relative IC50 value for the dilution series of a given test compound according to the equation: fit=(D+((Vmax*(x^n))/((x^n)+(Km^n)))).

[1] = 72 hours, read-out: Cellular IC50

Chain of JMJD2C (Q9H3R0 2-372): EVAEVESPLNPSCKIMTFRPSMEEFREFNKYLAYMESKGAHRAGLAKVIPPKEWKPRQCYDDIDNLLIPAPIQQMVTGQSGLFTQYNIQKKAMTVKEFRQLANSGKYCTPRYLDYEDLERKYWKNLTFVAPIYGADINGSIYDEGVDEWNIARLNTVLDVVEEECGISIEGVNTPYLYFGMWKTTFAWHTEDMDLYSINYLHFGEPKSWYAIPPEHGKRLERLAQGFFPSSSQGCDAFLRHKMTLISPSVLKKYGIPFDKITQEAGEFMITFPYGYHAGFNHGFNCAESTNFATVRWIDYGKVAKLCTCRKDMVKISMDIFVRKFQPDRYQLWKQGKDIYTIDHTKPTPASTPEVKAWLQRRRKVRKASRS
Chain of Jarid1A (P29375 1-1090): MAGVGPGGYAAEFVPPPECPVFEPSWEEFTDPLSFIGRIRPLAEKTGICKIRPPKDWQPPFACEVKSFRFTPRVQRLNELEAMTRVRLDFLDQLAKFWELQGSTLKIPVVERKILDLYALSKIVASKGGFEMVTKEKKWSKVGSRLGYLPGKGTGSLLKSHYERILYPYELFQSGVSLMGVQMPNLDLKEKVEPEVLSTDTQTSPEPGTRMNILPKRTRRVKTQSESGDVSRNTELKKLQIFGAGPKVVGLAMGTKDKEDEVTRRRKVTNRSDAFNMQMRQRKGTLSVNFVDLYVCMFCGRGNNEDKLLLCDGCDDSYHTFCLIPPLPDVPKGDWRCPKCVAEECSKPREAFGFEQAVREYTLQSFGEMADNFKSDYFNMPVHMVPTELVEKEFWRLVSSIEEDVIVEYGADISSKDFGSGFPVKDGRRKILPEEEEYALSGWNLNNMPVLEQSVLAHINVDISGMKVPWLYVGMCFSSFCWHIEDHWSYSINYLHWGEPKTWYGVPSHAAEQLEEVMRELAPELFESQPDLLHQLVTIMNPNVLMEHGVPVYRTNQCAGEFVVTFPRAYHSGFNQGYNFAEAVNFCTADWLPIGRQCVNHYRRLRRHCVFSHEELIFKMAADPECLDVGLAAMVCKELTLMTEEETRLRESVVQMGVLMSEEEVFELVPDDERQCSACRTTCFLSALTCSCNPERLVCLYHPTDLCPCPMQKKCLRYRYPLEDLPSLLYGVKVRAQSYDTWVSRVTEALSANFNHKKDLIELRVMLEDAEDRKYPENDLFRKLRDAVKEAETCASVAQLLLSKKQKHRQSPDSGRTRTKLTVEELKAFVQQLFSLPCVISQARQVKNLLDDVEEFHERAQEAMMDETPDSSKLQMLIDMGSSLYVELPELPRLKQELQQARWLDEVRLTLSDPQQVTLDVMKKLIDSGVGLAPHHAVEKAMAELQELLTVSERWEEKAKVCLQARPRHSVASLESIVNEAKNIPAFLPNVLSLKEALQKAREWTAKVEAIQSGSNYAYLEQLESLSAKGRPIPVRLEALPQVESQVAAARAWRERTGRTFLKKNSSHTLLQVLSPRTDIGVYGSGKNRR
Chain of Jarid1B (Q9UGL1 2-751): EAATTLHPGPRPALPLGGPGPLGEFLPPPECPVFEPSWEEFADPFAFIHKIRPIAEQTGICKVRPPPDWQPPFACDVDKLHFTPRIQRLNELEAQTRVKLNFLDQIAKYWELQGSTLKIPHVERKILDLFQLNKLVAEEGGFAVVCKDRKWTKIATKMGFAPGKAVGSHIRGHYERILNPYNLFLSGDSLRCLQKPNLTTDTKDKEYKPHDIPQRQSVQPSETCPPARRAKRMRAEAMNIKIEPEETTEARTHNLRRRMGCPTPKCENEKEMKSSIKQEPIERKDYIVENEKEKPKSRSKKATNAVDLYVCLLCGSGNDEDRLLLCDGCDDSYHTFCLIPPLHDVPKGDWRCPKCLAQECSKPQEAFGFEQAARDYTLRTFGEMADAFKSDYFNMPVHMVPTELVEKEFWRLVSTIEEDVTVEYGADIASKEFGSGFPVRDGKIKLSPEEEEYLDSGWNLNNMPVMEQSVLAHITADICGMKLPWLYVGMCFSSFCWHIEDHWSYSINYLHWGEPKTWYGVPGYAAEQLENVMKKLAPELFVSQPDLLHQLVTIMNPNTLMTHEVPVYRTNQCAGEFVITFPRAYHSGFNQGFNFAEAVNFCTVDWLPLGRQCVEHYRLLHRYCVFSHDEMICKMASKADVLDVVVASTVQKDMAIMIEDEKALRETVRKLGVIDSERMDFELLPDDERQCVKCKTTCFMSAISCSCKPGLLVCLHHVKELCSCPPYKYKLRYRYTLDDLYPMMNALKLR

O=C(O)c1ccncc1Nc1nn(CCN2CCCC2)c2ccc(Cl)cc12 [Example 78, 3-({5-chloro-1-[2-(pyrrolidin-1-yl)ethyl]-1H-indazol-3-yl}amino)pyridine-4-carboxylic acid]
pIC50 (Jarid1A): > 7.00
pIC50 (JMJD2C): > 7.00
pIC50 (Jarid1B): > 7.00

O=C(O)c1ccncc1Nc1nn(CC(O)CO)c2ccc(F)cc12 (centres unmarked) [Example 48, 3-{[1-(2,3-dihydroxypropyl)-5-fluoro-1H-indazol-3-yl]amino}pyridine-4-carboxylic acid]
pIC50 (Jarid1A): > 7.00
pIC50 (JMJD2C): > 7.00
pIC50 (KDM5A/B; [1]): < 5.00
pIC50 (Jarid1B): > 7.00

Cn1nc(Nc2cnccc2C(=O)O)c2cc(C(F)(F)F)ccc21 [Example 14, 3-[(5-trifluoromethyl-1-methyl-1H-indazol-3-yl)amino]pyridine-4-carboxylic acid]
pIC50 (Jarid1A): > 7.00
pIC50 (JMJD2C): > 7.00
pIC50 (KDM5A/B; [1]): 5.00 to 6.00
pIC50 (Jarid1B): > 7.00

CN(C)CCCCn1nc(Nc2cnccc2C(=O)O)c2cc(F)ccc21 [Example 43, 3-({1-[4-(dimethylamino)butyl]-5-fluoro-1H-indazol-3-yl}amino)pyridine-4-carboxylic acid, trifluoroacetic acid salt]
pIC50 (Jarid1A): > 7.00
pIC50 (JMJD2C): > 7.00
pIC50 (KDM5A/B; read-out: Cellular IC50, 72 hours): 5.00 to 6.00
pIC50 (Jarid1B): > 7.00

CC(O)Cn1nc(Nc2cnccc2C(=O)O)c2cc(F)ccc21 (centres unmarked) [Example 51, 3-{[5-fluoro-1-(2-hydroxypropyl)-1H-indazol-3-yl]amino}pyridine-4-carboxylic acid]
pIC50 (Jarid1A): > 7.00
pIC50 (JMJD2C): > 7.00
pIC50 (KDM5A/B; [1]): 5.00 to 6.00
pIC50 (Jarid1B): > 7.00

O=C(O)c1ccncc1Nc1nn(CCN2CCC(F)(F)C2)c2ccc(F)cc12 [Example 71, 3-({1-[2-(3,3-difluoropyrrolidin-1yl)ethyl]-5-fluoro-1H-indazol-3-yl}amino)pyridine-4-carboxylic acid]
pIC50 (Jarid1A): > 7.00
pIC50 (JMJD2C): > 7.00
pIC50 (KDM5A/B; [1]): 5.00 to 6.00
pIC50 (Jarid1B): > 7.00

CN1CCC(CCn2nc(Nc3cnccc3C(=O)O)c3cc(F)ccc32)CC1 [Example 41, 3-({5-fluoro-1-{2-(1-methylpiperidin-4-yl)ethyl]-1H-indazol-3-yl]amino)pyridine-4-carboxylic acid, trifluroacetic acid salt]
pIC50 (Jarid1A): > 7.00
pIC50 (JMJD2C): > 7.00
pIC50 (Jarid1B): > 7.00

O=C(O)c1ccncc1Nc1nn(C2CCOC2)c2ccc(F)cc12 (centres unmarked) [Example 54, 3-{[5-fluoro-1-(tetrahydrofuran-3-yl)-1H-indazol-3-yl]amino}pyridine-4-carboxylic acid]
pIC50 (Jarid1A): > 7.00
pIC50 (JMJD2C): > 7.00
pIC50 (KDM5A/B; [1]): 5.00 to 6.00
pIC50 (Jarid1B): > 7.00

O=C(O)c1ccncc1Nc1nn(CC(F)(F)F)c2ccc(F)cc12 [Example 23, 3-{[5-fluoro-1-(2,2,2-trifluoroethyl)-1H-indazol-3-yl]amino}pyridine-4-carboxylic acid]
pIC50 (Jarid1A): > 7.00
pIC50 (KDM5A/B; [1]): 5.00 to 6.00
pIC50 (Jarid1B): > 7.00

CCCn1nc(Nc2cnccc2C(=O)O)c2cccc(C)c21 [Example 45]
pIC50 (JMJD2C): 6.00 to 7.00
pIC50 (KDM5A/B; [1]): 5.00 to 6.00

O=C(O)c1ccncc1Nc1noc2ccccc12 [Example 3, 3-(1,2-benzoxazol-3-ylamino]pyridine-4-carboxylic acid]
pIC50 (Jarid1A): > 7.00
pIC50 (JMJD2C): > 7.00
pIC50 (Jarid1B): > 7.00

CCCCCn1nc(Nc2cnccc2C(=O)O)c2cc(F)ccc21 [Example 18, 3-[(5-fluoro-1-pentyl-1H-indazol-3-yl)amino]pyridine-4-carboxylic acid]
pIC50 (Jarid1A): > 7.00
pIC50 (KDM5A/B; [1]): 5.00 to 6.00
pIC50 (Jarid1B): > 7.00

CN(C)CCOCCn1nc(Nc2cnccc2C(=O)O)c2cc(Cl)ccc21 [Example 40, 3-[(1-{2-[2-(dimethylamino)ethoxy]ethyl}-5-chloro-1H-indazol-3-yl)amino]pyridine-4-carboxylic acid, trifluoroacetic acid salt]
pIC50 (Jarid1A): > 7.00
pIC50 (JMJD2C): > 7.00
pIC50 (Jarid1B): > 7.00

O=C(O)c1ccncc1Nc1nn(CCN2CCOCC2)c2ccc(F)cc12 [Example 56, 3-({5-fluoro-1-[2-(morpholin-1-yl)ethyl]-1H-indazol-3-yl}amino)pyridine-4-carboxylic acid]
pIC50 (Jarid1A): > 7.00
pIC50 (JMJD2C): > 7.00
pIC50 (Jarid1B): > 7.00

Cc1ccc2c(c1)c(Nc1cnccc1C(=O)O)nn2CC1CC1 [Example 37, 3-{[1-(cyclopropylmethyl)-5-methyl-1H-indazol-3-yl]amino}pyridine-4-carboxylic acid]
pIC50 (Jarid1A): > 7.00
pIC50 (KDM5A/B; [1]): 6.00 to 7.00
pIC50 (Jarid1B): > 7.00

O=C(O)c1ccncc1Nc1nn(CCC(F)(F)F)c2ccc(Cl)cc12 [Example 35, 3-{[5-chloro-1-(3,3,3-trifluoropropyl)-1H-indazol-3-yl]amino}pyridine-4-carboxylic acid]
pIC50 (Jarid1A): > 7.00
pIC50 (KDM5A/B; [1]): 6.00 to 7.00
pIC50 (Jarid1B): > 7.00

O=C(O)c1ccncc1Nc1nn(CCCCCO)c2ccc(F)cc12 [Example 44, 3-{[5-fluoro-1-(5-hydroxypentyl)-1H-indazol-3-yl]amino}pyridine-4-carboxylic acid]
pIC50 (Jarid1A): > 7.00
pIC50 (JMJD2C): > 7.00
pIC50 (Jarid1B): > 7.00

O=C(O)c1ccncc1Nc1nn(CC(O)C(F)(F)F)c2ccc(F)cc12 (centres unmarked) [Example 55, 3-{[5-fluoro-1-(3,3,3-trifluoro-2-hydroxypropyl)-1H-indazol-3-yl]amino}pyridine-4-carboxylic acid]
pIC50 (Jarid1A): > 7.00
pIC50 (JMJD2C): > 7.00
pIC50 (Jarid1B): > 7.00

Cn1nc(Nc2cnccc2C(=O)O)c2c(F)cccc21 [Example 13, 3-[(4-fluoro-1-methyl-1H-indazol-3-yl)amino]pyridine-4-carboxylic acid]
pIC50 (Jarid1A): > 7.00
pIC50 (JMJD2C): > 7.00
pIC50 (Jarid1B): > 7.00

CCCn1nc(Nc2cnccc2C(=O)O)c2cc(Cl)ccc21 [Example 33, 3-[(5-chloro-1-propyl-1H-indazol-3-yl)amino]pyridine-4-carboxylic acid]
pIC50 (Jarid1A): > 7.00
pIC50 (KDM5A/B; [1]): 6.00 to 7.00
pIC50 (Jarid1B): > 7.00

O=C(O)c1ccncc1Nc1nn(CC2CCC2)c2ccc(F)cc12 [Example 28, 3-{[1-(cyclobutylmethyl)-5-fluoro-1H-indazol-3-yl]amino}pyridine-4-carboxylic acid]
pIC50 (Jarid1A): > 7.00
pIC50 (KDM5A/B; [1]): 6.00 to 7.00
pIC50 (Jarid1B): > 7.00

O=C(O)c1ccncc1Nc1nn(CCC2CC2)c2ccc(F)cc12 [Example 31, 3-{[1-(cyclopropylethyl)-5-fluoro-1H-indazol-3-yl]amino}pyridine-4-carboxylic acid]
pIC50 (Jarid1A): > 7.00
pIC50 (KDM5A/B; [1]): 5.00 to 6.00
pIC50 (Jarid1B): > 7.00

COc1ccc2c(Nc3cnccc3C(=O)O)nn(C)c2c1 [Example 8, 3-[(6-methoxy-1-methyl-1H-indazol-3-yl)amino]pyridine-4-carboxylic acid]
pIC50 (Jarid1A): > 7.00
pIC50 (KDM5A/B; [1]): 5.00 to 6.00
pIC50 (Jarid1B): > 7.00

CC(C)Cn1nc(Nc2cnccc2C(=O)O)c2cc(F)ccc21 [Example 25, 3-{[5-fluoro-1-(2-methylpropyl)-1H-indazol-3-yl]amino}pyridine-4-carboxylic acid]
pIC50 (Jarid1A): > 7.00
pIC50 (KDM5A/B; [1]): 5.00 to 6.00
pIC50 (Jarid1B): > 7.00

CCCn1nc(Nc2cnccc2C(=O)O)c2cc(F)ccc21 [Example 15, 3-[(5-fluoro-1-propyl-1H-indazol-3-yl)amino]pyridine-4-carboxylic acid]
pIC50 (Jarid1A): > 7.00
pIC50 (KDM5A/B; [1]): 5.00 to 6.00
pIC50 (Jarid1B): > 7.00

COCCn1nc(Nc2cnccc2C(=O)O)c2ccccc21 [Example 10, 3-{[1-(2-methoxyethyl)-1H-indazol-3-yl]amino}pyridine-4-carboxylic acid]
pIC50 (Jarid1A): > 7.00
pIC50 (KDM5A/B; [1]): 5.00 to 6.00
pIC50 (Jarid1B): > 7.00

CCCn1nc(Nc2cnccc2C(=O)O)c2ccccc21 [Example 9, 3-[(1-propyl-1H-indazol-3-yl)amino]pyridine-4-carboxylic acid]
pIC50 (Jarid1A): > 7.00
pIC50 (KDM5A/B; [1]): 6.00 to 7.00
pIC50 (Jarid1B): > 7.00

O=C(O)c1ccncc1Nc1nn(C2CCCC2)c2ccc(F)cc12 [Example 29, 3-[(1-cyclopentyl-5-fluoro-1H-indazol-3-yl)amino]pyridine-4-carboxylic acid]
pIC50 (Jarid1A): > 7.00
pIC50 (KDM5A/B; [1]): 6.00 to 7.00
pIC50 (Jarid1B): > 7.00

Cn1nc(Nc2cnccc2C(=O)O)c2cc(Cl)ccc21 [Example 4, 3-[(5-chloro-1-methyl-1H-indazol-3-yl)amino]pyridine-4-carboxylic acid]
pIC50 (Jarid1A): > 7.00
pIC50 (KDM5A/B; [1]): 6.00 to 7.00
pIC50 (Jarid1B): > 7.00

O=C(O)c1ccncc1Nc1nn(CC2CCCO2)c2ccc(F)cc12 (centres unmarked) [Example 21, 3-{[5-fluoro-1-(tetrahydrofuran-2-ylmethyl)-1H-indazol-3-yl]amino}pyridine-4-carboxylic acid]
pIC50 (Jarid1A): > 7.00
pIC50 (KDM5A/B; [1]): 5.00 to 6.00
pIC50 (Jarid1B): > 7.00

N#CNC(=O)c1ccncc1Nc1nn(CCN2CCCC2)c2ccc(F)cc12 [Example 77, N-cyano-3-({5-fluoro-1-[2-(pyrrolidin-1-yl)ethyl]-1H-indazol-3-yl}amino)pyridine-4-carboxamide]
pIC50 (Jarid1A): > 7.00
pIC50 (JMJD2C): > 7.00
pIC50 (Jarid1B): > 7.00

Cc1ccc2c(Nc3cnccc3C(=O)O)nn(C)c2c1 [Example 5, 3-[(1,6-dimethyl-1H-indazol-3-yl)amino]pyridine-4-carboxylic acid]
pIC50 (Jarid1A): > 7.00
pIC50 (KDM5A/B; [1]): 5.00 to 6.00
pIC50 (Jarid1B): > 7.00

Source: US9617242B2, “Histone demethylase inhibitors” (priority 2012, dated 2017)
